{
  "source": "patent US9745345B2",
  "about": "“Anti-tumor polypeptides and method for preparing anti-tumor drugs comprisng the same” (priority 2013, dated 2017)",
  "key": {"[1]": {"test_system": "Human melanoma A375 cells", "experiment": "Human melanoma A375 subcutaneous xenograft in BALB/c nude mice, intratumoral injection of polypeptides", "type": "in vivo", "method": "Human melanoma A375 cells in the logarithmic phase of growth were cultured under sterile conditions to prepare a 5×10^6/200 μL cell suspension, and 200 μL cell suspension was separately injected into BALB/c nude mice subcutaneously. An electronic digital vernier caliper was used to measure the long-axis and short-axis diameters of the transplanted tumors, and the formula: Tumor Volume (TV)=½×Long-axis Diameter×Short-axis Diameter^2 was used to calculate the volume of the tumors. The mice were randomly grouped when the tumor volume reach about 100 mm^3.\nPolypeptides JWA-1, JWA-2, JWA-3, and an equivalent peptide blend (Pep) of the three polypeptides were injected into the tumors of the various groups of mice respectively, and the doses used were 25 mg/kg and 10 mg/kg, respectively; the negative control group was injected with an equal amount of sterile phosphate-buffered saline (PBS). The polypeptide injection groups and the control group were administered on alternate days (48 hrs interval) by injection for 5 times; and the body weight of the mice and their tumor diameters were measured at each administration. After completion of the experiment the mice were sacrificed after anesthesia, tumors were separated from the bodies and their weight were measured.\nIn this example, the method for dorsal subcutaneous tumor bearing of BALB/c nude mice by inoculation of A375 cells is the same as Example 2.\nThe aforementioned BALB/c nude mice inoculated with human melanoma A375 cells by intratumoral injection were separately treated using polypeptide JWA-1 of low dose (5 mg/kg), medium dose (10 mg/kg) and high dose (15 mg/kg); at the same time, a sterile PBS negative control group and a 10 mg/kg non-pep injection group (referred to simply as “non-pep group”, the polypeptide sequence used was SEQ ID NO: 14; […]-EEMQR, the N-terminus thereof being acetylated and the C-terminus thereof amidated) were established. The establishment of the non-pep group was for observing whether JWA polypeptides have any specific anti-tumor effect.\nTo verify the impact of phosphorylation of S in polypeptide JWA-1 on the anti-tumor effect thereof, a non-phosphorylated polypeptide JWA-7 injection group (10 mg/kg) was added in the aforementioned experiment.\n(§1) The various groups were administered by intratumoral injection on alternate days for 5 times consecutively; and the body weight of the mice and their tumor diameters were measured at each administration. After completion of the experiment the mice were sacrificed after anesthesia, tumors were separated from the bodies and the tumor weights were measured.\nThe BALB/c nude mice inoculated with human melanoma A375 cells were separately treated using 10 mg/kg polypeptides JWA-1, JWA-4, JWA-5, and JWA-6; at the same time, a 10 mg/kg non-pep injection group (referred to simply as “non-pep group”, the polypeptide sequence used was the same as Example 3) was established.\nThe mice with transplanted tumors in this example were the same as Example 2, and the experimental method used therein was also the same as Example 2. The various polypeptides were administered by intratumoral injection at a dose of 10 mg/kg, and a non-pep injection group (referred to simply as “non-pep group”, the polypeptide sequence used was the same as Example 3) was established."}, "A375 cells [2]": {"test_system": "A375 cells", "experiment": "Western Blot of apoptosis-related molecules (PARP-1, caspase-3) in A375 cells", "type": "cell-based, human", "settings": "A375, 24 hrs", "method": "(§2) The combined effect of ATO and polypeptide JWA-6 on the self-destruction of protein expression was also determined A375 cells in the logarithmic phase of growth were conventionally digested and 5×10^5 cells were inoculated evenly in a 60 mm cell culture dish, and different doses of ATO were used to individually treat the cells for 24 hrs, or different doses of ATO in combination with different doses of polypeptide JWA-6 were used to treat the cells for 24 hrs, after which 0.18 mL of RIPA lysis buffer containing 0.5% phenylmethanesulfonyl fluoride (PMSF) was added to extract protein. After centrifugation at 12000×g for 15 minutes, the supernatant was taken, protein concentration was examined. Based on the molecular weight measured, a polyacrylamide gel having a suitable concentration was chosen for protein electrophoresis where each well was added with […] of protein, and the conditions for electrolysis were 60 V, 30 minutes and 90 V, 1-1.5 hrs. After completion of the electrolysis, semi-dry transfer was performed to transfer the protein from the gel onto a polyvinylidene difluoride (PVDF) membrane. After completion of the transfer, the membrane was blocked with 5% skim milk at room temperature for 1-2 hrs. Then, the membrane was washed 3 times (each lasting 5 minutes) using Tris-buffered Saline with Tween (TBST) containing 0.1% Tween-20, and incubation of the corresponding antibody was performed overnight at 4° C. On the next day, membrane was washed 3 times (each lasting 5 minutes) using Tris-buffered Saline with Tween (TBST) containing 0.1% Tween-20; incubation of secondary antibody was performed at room temperature for 1-2 hrs; and again membrane was washed 8 times (each lasting 5 minutes) using Tris-buffered Saline with Tween (TBST) containing 0.1% Tween-20. The membrane was added with enhanced chemiluminescence (ECL) liquid and exposed.\nPolypeptide CPP-JWA-6 at a dose of 20 μM, 50 μM was applied individually and applied in combination with ATO (5 μM) on A375 cells (as shown in FIG. 40) and SGC7901 cells (as shown in FIG. 41) for 24 hrs before protein was extracted, and the Western Blot method of Example 7 was used to examine the changes in apoptosis-related molecules."}, "SGC7901 cells": {"test_system": "SGC7901 cells", "experiment": "Western Blot of PARP-1 in SGC7901 cells", "type": "cell-based", "settings": "24 hrs", "method": "as §2, with “exposed. […]” for “exposed.”"}, "[3]": {"test_system": "Human Melanoma A375 Cells", "experiment": "Cell proliferation with CCK8 reagent, A375 cells", "type": "cell-based", "settings": "0-50 μM, 24, 48 and 72 hrs, in comparison with the control group", "method": "(§3) B16F10 or A375 cells in the logarithmic phase of growth were trypsinized and seeded in a 96-well plate (5×10^3 cells/well), and were treated with different doses (0 μM, 5 μM, 10 μM, 25 μM, 50 μM) of polypeptide JWA-1, JWA-5, JWA-6 or non-pep (the polypeptide sequence used was the same as Example 3) for 24 hrs, 48 hrs and 72 hrs, respectively. The original culture medium was removed from the 96 wells at the indicated time and cell proliferation was determined with CCK8 reagent according to the manufacturer's instructions. Four duplicate samples were taken from each group and the experiments were repeated for three times."}, "[4]": {"test_system": "Mouse Melanoma B16F10 Cells", "experiment": "Cell proliferation with CCK8 reagent, B16F10 cells", "type": "cell-based", "settings": "0-50 μM, 24, 48 and 72 hrs, in comparison with the control group", "method": "as §3"}, "A375 cells [5]": {"test_system": "A375 cells", "experiment": "Cytoactivity of A375 cells treated with ATO alone or with polypeptides in combination with ATO", "type": "cell-based, human", "settings": "polypeptide 50-500 μM in combination with ATO 0.5-5 μM, 24 and 48 hrs", "method": "Firstly, the dose and time for treatment of A375 cells with ATO were determined. A375 cells in the logarithmic phase of growth were conventionally digested and seeded in a 96-well plate (5×10^3 cells/well), and different doses (5 μM, 10 μM, 25 μM, 50 μM) of ATO were used to treat the cells for 24 hrs and 48 hrs after cell attachment. It was discovered that the activity of A375 cells was reduced by 40% after 24 hrs of treatment with 5 μM ATO (as shown in FIG. 24), and that the cell growth inhibition rate was approximately 100% after 48 hrs of treatment with different doses of ATO (as shown in FIG. 25). Therefore, ATO with a concentration smaller than or equal to 5 μM was chosen to treat the cells for 24 hrs for subsequent reference of dose and time for combined medication."}, "[6]": {"test_system": "human melanoma A375 cells", "experiment": "Human melanoma A375 subcutaneous xenograft in NOD/SCID mice, intraperitoneal injection of polypeptides", "type": "in vivo", "settings": "Example 5, alternate days, 5 times", "description": "The polypeptide designed and synthesized in this example was JWA-6+RGD whose sequence was SEQ ID NO: 7, i.e. 6-aminocaproic acid-FPGSDRF-GGGG-RGD, wherein amino acid S was phosphorylated. In addition, the N-terminus of the polypeptide sequence was acetylated and the C-terminus thereof was amidated during synthesis to prevent rapid degradation of the polypeptide. In this example, non-obese diabetic/severe combined immunodeficiency (NOD/SCID) mice were chosen for tumor-bearing model and the method for dorsal subcutaneous tumor bearing by inoculation of human melanoma A375 cells is the same as Example 2. The mice were randomly divided into four treatment groups after the tumors grew to a volume of about 100 mm^3. […]\nas §1, with “Then, 50 mg/kg polypeptide JWA-6, 10 mg/kg polypeptide JWA-6+RGD, 50 mg/kg polypeptide JWA-6+RGD, and 50 mg/kg non-pep (the polypeptide sequence used was the same as Example 3) were injected intraperitoneally. The” for “The”, “with” for “by intratumoral”, “weights” for “weights were”\nThereafter, the tumor bearing mice were obtained using the foregoing method of this example and divided into seven injection groups which were intraperitoneally injected with polypeptides JWA-6+RGD, JWA-6+RGD0, JWA-6+RGD1, JWA-6+RGD3, JWA-6+RGD7, JWA-6+RGD10, and non-pep (the polypeptide sequence used was the same as Example 3) at a dose of 50 mg/kg. The various groups were administered by intraperitoneal injection on alternate days for 5 times consecutively; and the body weight of the mice and their tumor diameters were measured at each administration. The day of first administration was taken as the first day, and the experiment was stopped on the twelfth day when the mice were sacrificed after anesthesia, and tumors were separated from the bodies and the tumor weights were measured."}, "[7]": {"settings": "20, 50 μM polypeptide combined with ATO 5 μM, in comparison with ATO alone"}, "[8]": {"settings": "polypeptide alone at a dose not exceeding 50 μM"}, "[9]": {"settings": "Example 3, 10 mg/kg intratumoral, alternate days, 5 times, 10 mg/kg"}, "[10]": {"settings": "Example 4, 10 mg/kg intratumoral, alternate days, 5 times, compared among polypeptides"}},
  "note": "Square brackets hold non-standard residues; d marks the D form. Ends that are not written are not given here. pS = N[C@@H](COP(=O)(O)O)C(=O)O; Ahx = NCCCCCC(=O)O",
  "data": [
    {"substance": "6-aminoacetic acid-EEMQR [non-pep, reference compound]", "values": [
      {"measurement": "tumor inhibition effect", "setting": "[1]; Example 3, 10 mg/kg intratumoral, alternate days, 5 times", "value": "no tumor inhibition effect"}
    ]},
    {"substance": "6-aminocaproic acid-(R)9—FPGSDRF ([Ahx]RRRRRRRRRFPG[pS]DRF) [CPP-JWA-6]", "values": [
      {"measurement": "PARP-1 spliceosome", "setting": "A375 cells [2]; [7]", "value": "significantly increased"},
      {"measurement": "caspase-3 spliceosome", "setting": "A375 cells [2]; [7]", "value": "significantly increased"},
      {"measurement": "changes in the expression of PARP-1", "setting": "A375 cells [2]; [8]", "value": "will not cause any changes"},
      {"measurement": "PARP-1 spliceosome", "setting": "SGC7901 cells; [7]", "value": "significantly increased"},
      {"measurement": "changes in the expression of PARP-1", "setting": "SGC7901 cells; [8]", "value": "will not cause any changes"}
    ]},
    {"substance": "6-aminocaproic acid-FFPGSDRFA [JWA-1] ([Ahx]FFPG[pS]DRFA)", "values": [
      {"measurement": "inhibition effect on subcutaneous tumor growth in nude mice", "setting": "[1]; Example 2, 10 mg/kg intratumoral, alternate days, 5 times, in comparison with PBS control group", "value": "more significant"},
      {"measurement": "tumor weight to body weight ratio", "setting": "[1]; Example 2, 10 mg/kg intratumoral, alternate days, 5 times, in comparison with PBS control group, P<0.05", "value": "smaller"},
      {"measurement": "tumor inhibition effect", "setting": "[1]; [9]", "value": "significant tumor inhibition effect"},
      {"measurement": "dose-effect relation of tumor inhibition", "setting": "[1]; Example 3, 5, 10 and 15 mg/kg intratumoral", "value": "no trend of enhanced effect was detected along with dose increase"},
      {"measurement": "inhibition effect on A375 cells", "setting": "[3]", "value": "no inhibition effect"},
      {"measurement": "inhibition effect on B16F10 cells", "setting": "[4]", "value": "no inhibition effect"},
      {"measurement": "cytoactivity of A375 cells, combined use with ATO", "setting": "A375 cells [5]", "value": "no synergistic effect"}
    ]},
    {"substance": "6-aminocaproic acid-FFPGSDRFA [JWA-7] ([Ahx]FFPGSDRFA)", "values": [
      {"measurement": "tumor inhibition effect", "setting": "[1]; [9]", "value": "no tumor inhibition effect"}
    ]},
    {"substance": "6-aminocaproic acid-FPGSDRF-GGGG-RGD (Ac-[Ahx]FPG[pS]DRFGGGGRGD-NH2; SMILES CC(=O)NCCCCCC(=O)N[C@@H](Cc1ccccc1)C(=O)N1CCC[C@H]1C(=O)NCC(=O)N[C@@H](COP(=O)(O)O)C(=O)N[C@@H](CC(=O)O)C(=O)N[C@@H](CCCNC(=N)N)C(=O)N[C@@H](Cc1ccccc1)C(=O)NCC(=O)NCC(=O)NCC(=O)NCC(=O)N[C@@H](CCCNC(=N)N)C(=O)NCC(=O)N[C@@H](CC(=O)O)C(N)=O) [JWA-6+RGD]", "values": [
      {"measurement": "tumor inhibition effect", "setting": "[6]; 10 mg/kg intraperitoneal", "value": "a certain degree of tumor inhibition effect"},
      {"measurement": "tumor inhibition effect", "setting": "[6]; 50 mg/kg intraperitoneal", "value": "better tumor inhibition effect"}
    ]},
    {"substance": "6-aminocaproic acid-GSD [JWA-4]", "values": [
      {"measurement": "tumor inhibition effect", "setting": "[1]; [10]", "value": "significantly worse than that of polypeptide JWA-6"}
    ]},
    {"substance": "6-aminocaproic acid-PGSDR ([Ahx]PG[pS]DR) [JWA-5]", "values": [
      {"measurement": "tumor inhibition effect", "setting": "[1]; [10]", "value": "significantly worse than that of polypeptide JWA-6"},
      {"measurement": "inhibition effect on A375 cells", "setting": "[3]", "value": "no inhibition effect"},
      {"measurement": "inhibition effect on B16F10 cells", "setting": "[4]", "value": "no inhibition effect"}
    ]}
  ]
}
